Each structure is given as a SMILES string.

The target of one test is T1, α-7 nicotinic acetylcholine receptor channel expressed in HEK 293 cells (Rattus norvegicus, UniProt Q05941).
T1 construct: expressed in transfected cells
T1 sequence (Q05941 23-502): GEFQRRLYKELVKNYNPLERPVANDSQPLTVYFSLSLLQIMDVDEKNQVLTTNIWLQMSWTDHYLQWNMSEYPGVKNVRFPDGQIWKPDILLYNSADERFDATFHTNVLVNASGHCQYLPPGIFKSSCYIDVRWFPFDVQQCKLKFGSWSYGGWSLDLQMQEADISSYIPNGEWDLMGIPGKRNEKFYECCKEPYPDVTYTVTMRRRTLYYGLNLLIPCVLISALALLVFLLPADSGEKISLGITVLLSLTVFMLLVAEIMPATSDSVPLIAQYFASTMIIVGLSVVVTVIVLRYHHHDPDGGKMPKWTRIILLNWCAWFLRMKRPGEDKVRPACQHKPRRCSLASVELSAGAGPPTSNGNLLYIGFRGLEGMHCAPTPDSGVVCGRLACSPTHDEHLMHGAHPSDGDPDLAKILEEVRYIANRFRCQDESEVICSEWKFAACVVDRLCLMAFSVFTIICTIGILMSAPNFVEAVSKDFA
The test can be described thus: Ca2+-sensitive fluorescence-based FLIPR assay, α7 nicotinic ACh receptor channel function (agonist). In kind it is cell-based.
Conditions: not given
How it is done: I) α7 Nicotinic Acetycholine Receptor Binding. Membranes were prepared for binding using HEK293 cells stably expressing the rat α7 nicotinic acetycholine receptor (rat α7 nAChR). Cells were homogenized at 4° C. in hypotonic lysis buffer consisting of 10 mM Tris (pH 7.4), 5 mM EDTA and protease inhibitors and centrifuged at 32000×g for 20 minutes. The pellet was washed once in membrane wash buffer consisting of 50 mM Tris (pH 7.4), 1 mM EDTA and protease inhibitors and centrifuged at 32000×g for 20 minutes. This pellet was then resuspended in assay buffer consisting 50 mM KH2PO4 (pH 7.4 at 25° C.), 1 mM EDTA, 0.005% Triton-X 100 and 0.1% (v/v) Sigma Protease Inhibitor Cocktail. Aliquots were then frozen in dry ice/ethanol and kept at −80° C. until the day of the assay. II) A Ca^2+-Sensitive, Fluorescence-Based Assay α-7 for Nicotinic Acetylcholine Receptor Channel Function In Mammalian Cells (“FLIPR”). Summary: Lead compounds are evaluated for agonist activity at […], α3β4, […], and α1β1δ1ε sub-types of nicotinic ACh receptor ion channels expressed in mammalian HEK 293 cells. Agonist potency and efficacy values are determined from kinetic fluorescence Ca^2+ influx measurements made using a 384 well FLIPR (Fluorescence Image Plate Reader). […] In this assay, channel expressing HEK cell lines seeded in 384 well assay plates are loaded with a membrane permeant fluorescent Ca^2+ indicator dye, whose 510 nm green emission signal increases in response to elevation of intracellular Ca^2+ concentration. The basal fluorescence from the cells is monitored in real time, followed by the acute addition of test compounds.
Materials and Methods: Reagents: The acetomethoxy (AM) ester of the Ca^2+ indicator dye Fluo-4 was obtained from InVitrogen, (Carlsbad, Calif.). Acetylcholine and all buffer constituents were purchased from Sigma Chemical Company, St. Louis, Mo. G418 and Minimal Essential Medium were purchased from InVitrogen Life Technologies, Carlsbad, Calif. Fetal bovine serum was purchased from (InVitrogen, Carlsbad, Calif.).
Cell Culture: HEK-293 cells were grown in Minimal Essential Medium containing 10% (v/v) fetal bovine serum at 37° C. in a 5% CO2 incubator. HEK-293 cells stably expressing the ion channels were grown in the same medium with the addition of 500 μg/ml G418.
Ca^2+ flux assays of Ca^2+ channels expressed in HEK-293 cells: HEK-293 cells expressing the ion channels of interest were plated in 384 well, black-walled, clear-bottomed, poly-D-lysine coated plates at a density of ˜20,000 cells/well in 20 μl of Minimal Essential Medium containing 10% (v/v) fetal bovine serum and incubated for 2 days at 29° C. in a 5% CO2 incubator. Prior to assay, cells were loaded with the Fluo-4 AM ester. […] Dye loading was allowed to proceed for 90 minutes at room temperature at which time the dye loading solution was removed and replaced with 40 μl/well of Hanks buffer. Cells loaded with dye were loaded onto a FLIPR384 (Molecular Devices, Sunnyvale, Calif.). Fluo-4 dye was excited using the 488 nm line of an argon laser. Emission was filtered using a 540+/−30 nm bandpass filter. For evaluation of the effects of test compounds using the Ca^2+ flux assay, compounds to be tested were provided in assay ready plates. For nicotinic receptor ion channel expressing cells, the assay was initiated by the addition of 20 μl/well of Hanks buffer containing test compounds. For all assays, data were collected at 1 Hz for 10 seconds (baseline), at which time the compound containing stimulus buffers are added, and further measurements collected at 0.33 Hz for 3 min.
Data Analysis: The statistical robustness of the nicotinic receptor Ca^2+ flux assays is determined from blanks and totals wells. […] The raw fluorescence units data files generated on the FLIPR plate reader are automatically exported and processed by in-house data analysis tools.
As to `c1cncc(/N=C2\NCC3(CN4CCC3CC4)O2)c1` (racemic) [Example 18, (E)-N-(1′-Azaspiro[oxazolidine-5,3′-bicyclo[2.2.2]octane]-2-ylidene)pyridin-3-amine], the EC50 turned out to be 3930 nM.

Still in this test, the particulars now being: FLIPR α7 (EC50, nM), Table 1; HEK 293 cells, agonist Ca2+ flux.
The molecule `COc1nccnc1NC1=NCC2(CN3CCC2CC3)O1` (racemic) [Example 120] gave an EC50 of 875 nM.

The same test, now with this note: FLIPR α7 activity rating (EC50, nM), Table 1; HEK 293 cells, agonist Ca2+ flux.
The molecule `c1ccc2sc(NC3=NCC4(CN5CCC4CC5)O3)nc2c1` (racemic) [Example 1, N-(benzo[d]thiazol-2-yl)-4H-1′-azaspiro[oxazole-5,3′-bicyclo[2.2.2]octan]-2-amine] yielded an EC50 of less than 100 nM.
Molecule `COc1ccc2nc(NC3=NCC4(CN5CCC4CC5)O3)sc2n1` (racemic) [Example 2, N-(5-Methoxythiazolo[5,4-b]pyridin-2-yl)-4H-1′-azaspiro[oxazole-5,3′-bicyclo[2.2.2]octan]-2-amine] yielded an EC50 of 100 to 1000 nM.
With `Clc1cccc2sc(NC3=NCC4(CN5CCC4CC5)O3)nc12` (racemic) [Example 7, N-(4-chlorobenzo[d]thiazol-2-yl)-4H-1′-azaspiro[oxazole-5,3′-bicyclo[2.2.2]octan]-2-amine], the EC50 lay in the range of 100 to 1000 nM.
The same measure, in the same setting: as for `Oc1ccc2nc(NC3=NCC4(CN5CCC4CC5)O3)sc2c1` (racemic) [Example 13, 2-(4H-1′-Azaspiro[oxazole-5,3′-bicyclo[2.2.2]octane]-2-ylamino)benzo[d]thiazol-6-ol], the figure is less than 100 nM; as for `C1CCc2sc(NC3=NCC4(CN5CCC4CC5)O3)nc2C1` (racemic) [Example 14, N-(4,5,6,7-Tetrahydrobenzo[d]thiazol-2-yl)-4H-1′-azaspiro[oxazole-5,3′-bicyclo[2.2.2]octan]-2-amine], 100 to 1000 nM.
Still for that read-out and setting: the figure for `CC(C)c1csc(NC2=NCC3(CN4CCC3CC4)O2)n1` (racemic) [Example 15, N-(4-Isopropylthiazol-2-yl)-4H-1′-azaspiro[oxazole-5,3′-bicyclo[2.2.2]octan]-2-amine] is 100 to 1000 nM.
Still for that read-out and setting: the figure for `c1csc(NC2=NCC3(CN4CCC3CC4)O2)n1` (racemic) [Example 16, N-(Thiazol-2-yl)-4H-1′-azaspiro[oxazole-5,3′-bicyclo[2.2.2]octan]-2-amine] is 100 to 1000 nM; for `COc1ccc(-c2nc(NC3=NCC4(CN5CCC4CC5)O3)sc2C)cc1` (racemic) [Example 17, N-(4-(4-Methoxyphenyl)-5-methylthiazol-2-yl)-4H-1′-azaspiro[oxazole-5,3′-bicyclo[2.2.2]octan]-2-amine] it is 100 to 1000 nM; for `c1cncc(/N=C2\NCC3(CN4CCC3CC4)O2)c1` (racemic) [Example 18, (E)-N-(1′-Azaspiro[oxazolidine-5,3′-bicyclo[2.2.2]octane]-2-ylidene)pyridin-3-amine] it is 1000 to 100000 nM.
With `COc1ccc(-c2csc(NC3=NCC4(CN5CCC4CC5)O3)n2)cc1` (racemic) [Example 20, N-(4-(4-Methoxyphenyl)thiazol-2-yl)-4H-1′-azaspiro[oxazole-5,3′-bicyclo[2.2.2]octan]-2-amine], the EC50 is 100 to 1000 nM.
For `Cc1cc(C)c2c(NC3=NCC4(CN5CCC4CC5)O3)nsc2n1` (racemic) [Example 114], the EC50 lay within 100 to 1000 nM.
Still for that read-out and setting: the figure for `c1cnnc(NC2=NCC3(CN4CCC3CC4)O2)c1` (racemic) [Example 115] is 1000 to 100000 nM; for `COc1ccc(NC2=NCC3(CN4CCC3CC4)O2)nn1` (racemic) [Example 116] it is 1000 to 100000 nM; for `COc1cncc(NC2=NCC3(CN4CCC3CC4)O2)n1` (racemic) [Example 118] it is 1000 to 100000 nM.
Regarding `COc1nccnc1NC1=NCC2(CN3CCC2CC3)O1` (racemic) [Example 120], the EC50 is 100 to 1000 nM.
`CC(C)(C)c1cc(NC2=NCC3(CN4CCC3CC4)O2)ncn1` (racemic) [Example 121] came in with an EC50 of 1000 to 100000 nM.
With `Cc1cc(NC2=NCC3(CN4CCC3CC4)O2)nc(C)n1` (racemic) [Example 123], the EC50 is 1000 to 100000 nM.
As to `Cc1ccc(NC2=NCC3(CN4CCC3CC4)O2)nn1` (racemic) [Example 124], the EC50 lay in the range of 1000 to 100000 nM.
With `c1ccc2sc(NC3=NCC4(CN5CCC4CC5)O3)nc2c1` (single isomer, unassigned) [Example 1a], the EC50 is 1000 to 100000 nM.
Same read-out and setting: as for `c1ccc2sc(NC3=NCC4(CN5CCC4CC5)O3)nc2c1` (single isomer, unassigned) [Example 1b], the figure is less than 100 nM.

Values taken from patent US8309577B2, “Quinuclidine compounds as α-7 nicotinic acetylcholine receptor ligands” (Bristol-Myers Squibb Company, priority 2008, dated 2012).
